Values quoted from earlier work, collected in US20070105756A1 (priority 2005, published 2007).

Tested on: sensitive individuals
Settings: oral route

NCCc1c[nH]cn1 [histamine]
histamine concentration known to be biologically active: > 5 nM
